Reference: PMC10033419, “Blocking NS3–NS4B interaction inhibits dengue virus in non-human primates” (Nature, 2023)
Several values for one entry are separate records, joined by “and”; a condition that tells them apart may be missing. Equal values may be shown once. Read-outs that look alike come from different tables or passages of the source.

Tests used:
MTS/PMS toxicity assay = type: cell-based, African green monkey; details: African green monkey, Vero cells
Method: (§1) A potential toxic effect on host cells was tested in parallel, while omitting virus infection, using the MTS/PMS method (Promega) for Vero cells, or by high-content imaging for C6/36 cells, as described previously. […] RT–qPCR data were analysed using the QuantStudio 12K Flex software (v.1.2.3) or SDS v.1.2 Applied Biosystems software. Inhibition values for antiviral molecules were plotted using KaleidaGraph plotting software (v.4.03, Synergy Software).

Vero cells = assay: MTS/PMS toxicity assay; type: cell-based, African green monkey; details: EXP1-EXP3, read-out: CC50, single experiments
Method: as §1

DENV-4/703/4 = assay: Viraemia/survival study; type: in vivo, AG129 mice; details: for Viral RNA copies/mL [Log10]: Fig. 2k Viraemia DENV-4, BID, individual animals 1-5, LOD is 1.7
Method: (§2) The UTMB is an Association for the Assessment and Accreditation of Laboratory and Care (AAALAC) International accredited facility. All of the procedures were reviewed and approved by the UTMB Institutional Animal Care and Use Committee. […] Male and female AG129 mice (n = 10 per group; aged 6–8 weeks) were housed at a maximum of 5 mice per cage in individually ventilated cages with food and water provided ad libitum. Allocation to experimental groups was performed randomly. […] Approximately 1 h after the first treatment, all of the animals were challenged by i.p. injection with 10^7 PFU DENV-1/West Pac, DENV-3/C0360/94 or DENV-4/703/4. Pretreatment with anti-flavivirus antibody 4G2 to increase disease severity by induction of ADE was not required as infection with DENV-1/West Pac, DENV-3/C0360/94 or DENV-4/703/4 in our models leads to severe disease (requiring euthanasia after >20% loss of body weight). Each treatment group was subdivided into two smaller groups (groups A and B; n = 5 each). Blood was collected on day 3 after infection from group A to measure viral RNA; samples were collected by retro-orbital bleed on day 3 after infection around 30 min before the morning treatment. In parallel, animals (groups A and B) were followed for lethality throughout the experiment. Viral RNA isolation from plasma and RT–qPCR analysis was performed using the methods described previously.
(§3) For the viral kinetics studies and the delayed-treatment studies, a batch approach was applied to calculate the viral load AUC using the PΚ R package. This package estimates a mean AUC value for settings in which the animals are measured at varying timepoints within a treatment group. […] The AUC was calculated using the LOD (2.6 log10 copies per ml) as the lowest limit. […] In the delayed-treatment studies, the total viral load AUC for each of the compound-treated groups was calculated and compared with that of the vehicle-treated group. […] P values were adjusted using the Bonferroni multiple-comparison correction method. Note that P values lower than 0.0001 were rounded to 0.0001. For survival studies of DENV-1-, DENV-3- or DENV-4-infected mice, Fisher’s exact tests were used on day 6. P values were adjusted using the Bonferroni multiple-comparison correction method.

DENV-3/C0360/94 = assay: Viraemia/survival study; type: in vivo, AG129 mice; details: for Viral RNA copies/mL [Log10]: Fig. 2j Viraemia DENV-3, BID, individual animals 1-5, LOD is 1.7
Method: as §2, §3

HBV replicon = assay: microbe, parasite or virus in culture; type: cell-based; details: Hepatitis B virus
[1] = ATPLite cell viability assay; type: cell-based; details: human, Huh-7 cells; Huh-7, n=1
Method: In parallel, the toxicity was measured using an ATPLite cell viability luminescence assay (PerkinElmer). The assays were performed in three different cell types (Vero, Huh-7 and THP-1/DC-SIGN) as described in ref. [3] to exclude cell-specific activity of the compound.

DENV-2/16681 = assay: NHP DENV-2 study, plasma viral RNA RT-qPCR; parameters: species or system rhesus macaques (M. mulatta); details: rhesus monkey, in vivo
[2] = parameters: method as in earlier work; details: healthy volunteers ref 4; cited from earlier work
DENV-1 G4 45AZ5 = assay: DENV-1/45AZ5 antiviral assay RT-qPCR; type: cell-based
Method: A total of 20 DENV strains, representing the available genotypes within the four DENV serotypes, were used in the in vitro genotype panel, from which 19 viruses were described previously in ref. [3] and one additional virus, DENV-1/45AZ5 (ref. [54]), was added.
as §1

[3] = 60 or 6 mg per kg per day b.i.d.
[4] = 60 or 6 mg per kg per day b.i.d., vehicle 0%

**Q.** Which CC50 (MTS/PMS toxicity assay; EXP1-EXP3, read-out: CC50, single experiments) does the source give for COc1cc(N[C@H](C(=O)c2c[nH]c3ccc(OC(F)(F)F)cc23)c2ccc(Cl)cc2OC)cc(S(C)(=O)=O)c1 [JNJ-1802] here?
**A.** 2.77 µM

**Q.** And the CC50 (MTS/PMS toxicity assay; Vero, read-out: CC50)?
**A.** > 2.26 µM

**Q.** What about the CC50 (MTS/PMS toxicity assay; mean, read-out: CC50 MEAN) of the same molecule?
**A.** > 2.3 µM

**Q.** What about the CC50 (MTS/PMS toxicity assay; median, read-out: CC50 MEDIAN) of the same molecule?
**A.** > 2 µM

**Q.** And the CC50 (Vero cells)?
**A.** > 2 µM

**Q.** What about the “viral RNA load day 3 vs vehicle” value (DENV-4/703/4; [3]) of the same molecule?
**A.** significantly reduced

**Q.** And the “survival until day 6” value (DENV-4/703/4; [4])?
**A.** 100%

**Q.** What about the “Survival [%]” value (DENV-4/703/4; DENV-4, 6 mg/kg/day BID, day 0 post-infection) of the same molecule?
**A.** 100%

**Q.** What about the “Survival [%]” value (DENV-4/703/4; DENV-4, 6 mg/kg/day BID, day 1 post-infection) of the same molecule?
**A.** 100%

**Q.** And the “Survival [%]” value (DENV-4/703/4; DENV-4, 6 mg/kg/day BID, day 2 post-infection)?
**A.** 100%

**Q.** And the “Survival [%]” value (DENV-4/703/4; DENV-4, 6 mg/kg/day BID, day 3 post-infection)?
**A.** 100%

**Q.** What about the “Survival [%]” value (DENV-4/703/4; DENV-4, 6 mg/kg/day BID, day 4 post-infection) of the same molecule?
**A.** 100%

**Q.** What about the “Survival [%]” value (DENV-4/703/4; DENV-4, 6 mg/kg/day BID, day 5 post-infection) of the same molecule?
**A.** 100%

**Q.** And the “Survival [%]” value (DENV-4/703/4; DENV-4, 6 mg/kg/day BID, day 6 post-infection)?
**A.** 100%

**Q.** And the “Survival [%]” value (DENV-4/703/4; DENV-4, 60 mg/kg/day BID, day 0 post-infection)?
**A.** 100%

**Q.** What about the “Survival [%]” value (DENV-4/703/4; DENV-4, 60 mg/kg/day BID, day 1 post-infection) of the same molecule?
**A.** 100%

**Q.** What about the “Survival [%]” value (DENV-4/703/4; DENV-4, 60 mg/kg/day BID, day 2 post-infection) of the same molecule?
**A.** 100%

**Q.** And the “Survival [%]” value (DENV-4/703/4; DENV-4, 60 mg/kg/day BID, day 3 post-infection)?
**A.** 100%

**Q.** And the “Survival [%]” value (DENV-4/703/4; DENV-4, 60 mg/kg/day BID, day 4 post-infection)?
**A.** 100%

**Q.** And the “Survival [%]” value (DENV-4/703/4; DENV-4, 60 mg/kg/day BID, day 5 post-infection)?
**A.** 100%

**Q.** What about the “Survival [%]” value (DENV-4/703/4; DENV-4, 60 mg/kg/day BID, day 6 post-infection) of the same molecule?
**A.** 100%

**Q.** What about the “Viral RNA copies/mL [Log10]” value (DENV-4/703/4; 6 mg/kg/day) of the same molecule?
**A.** 1.7 copies/mL [Log10] and 4.048 copies/mL [Log10] and 3.88 copies/mL [Log10]

**Q.** And the “Viral RNA copies/mL [Log10]” value (DENV-4/703/4; 60 mg/kg/day)?
**A.** 1.7 copies/mL [Log10]

**Q.** What about the “viral RNA load day 3 vs vehicle” value (DENV-3/C0360/94; [3]) of the same molecule?
**A.** significantly reduced

**Q.** And the “survival until day 6” value (DENV-3/C0360/94; [4])?
**A.** 100%

**Q.** And the “Survival [%]” value (DENV-3/C0360/94; DENV-3, 6 mg/kg/day BID, day 0 post-infection)?
**A.** 100%

**Q.** What about the “Survival [%]” value (DENV-3/C0360/94; DENV-3, 6 mg/kg/day BID, day 1 post-infection) of the same molecule?
**A.** 100%

**Q.** What about the “Survival [%]” value (DENV-3/C0360/94; DENV-3, 6 mg/kg/day BID, day 2 post-infection) of the same molecule?
**A.** 100%

**Q.** What about the “Survival [%]” value (DENV-3/C0360/94; DENV-3, 6 mg/kg/day BID, day 3 post-infection) of the same molecule?
**A.** 100%

**Q.** And the “Survival [%]” value (DENV-3/C0360/94; DENV-3, 6 mg/kg/day BID, day 4 post-infection)?
**A.** 100%

**Q.** And the “Survival [%]” value (DENV-3/C0360/94; DENV-3, 6 mg/kg/day BID, day 5 post-infection)?
**A.** 100%

**Q.** And the “Survival [%]” value (DENV-3/C0360/94; DENV-3, 6 mg/kg/day BID, day 6 post-infection)?
**A.** 100%

**Q.** And the “Survival [%]” value (DENV-3/C0360/94; DENV-3, 60 mg/kg/day BID, day 0 post-infection)?
**A.** 100%

**Q.** What about the “Survival [%]” value (DENV-3/C0360/94; DENV-3, 60 mg/kg/day BID, day 1 post-infection) of the same molecule?
**A.** 100%

**Q.** What about the “Survival [%]” value (DENV-3/C0360/94; DENV-3, 60 mg/kg/day BID, day 2 post-infection) of the same molecule?
**A.** 100%

**Q.** What about the “Survival [%]” value (DENV-3/C0360/94; DENV-3, 60 mg/kg/day BID, day 3 post-infection) of the same molecule?
**A.** 100%

**Q.** And the “Survival [%]” value (DENV-3/C0360/94; DENV-3, 60 mg/kg/day BID, day 4 post-infection)?
**A.** 100%

**Q.** And the “Survival [%]” value (DENV-3/C0360/94; DENV-3, 60 mg/kg/day BID, day 5 post-infection)?
**A.** 100%

**Q.** What about the “Survival [%]” value (DENV-3/C0360/94; DENV-3, 60 mg/kg/day BID, day 6 post-infection) of the same molecule?
**A.** 100%

**Q.** And the “Viral RNA copies/mL [Log10]” value (DENV-3/C0360/94; 6 mg/kg/day)?
**A.** 1.7 copies/mL [Log10] and 2.037 copies/mL [Log10] and 2.373 copies/mL [Log10]

**Q.** And the “Viral RNA copies/mL [Log10]” value (DENV-3/C0360/94; 60 mg/kg/day)?
**A.** 1.7 copies/mL [Log10]

**Q.** What about the EC50 (HBV replicon; HepG2.117) of the same molecule?
**A.** 10 µM

**Q.** And the EC50 (HBV replicon; HepG2.117, read-out: EC50, Mean)?
**A.** 9.96 µM

**Q.** What about the EC90 (HBV replicon; HepG2.117, read-out: EC90, Mean) of the same molecule?
**A.** 12.5 µM

**Q.** And the CC50 [1]?
**A.** 12.7 µM

**Q.** And the “DENV RNA in plasma” value (DENV-2/16681)?
**A.** undetectable DENV RNA levels throughout the study period

**Q.** And the “Viral load Assay 1 FLAG” value (DENV-2/16681)?
**A.** BLOQ (key: BLOQ = Below limit of detection)

**Q.** And the “Viral load Assay 2 FLAG” value (DENV-2/16681)?
**A.** BLOQ (key: BLOQ = Below limit of detection)

**Q.** And the “Viral load Assay 2 FLAG (2nd column)” value (DENV-2/16681)?
**A.** BLOQ (key: BLOQ = Below limit of detection)

**Q.** And the “day first DENV-RNA positive (≥LLOQ)” value (DENV-2/16681)?
**A.** 5

**Q.** What about the “day first DENV-RNA positive (≥LLOQ), per animal” value (DENV-2/16681) of the same molecule?
**A.** 21 and 6 and 10

**Q.** And the peak viraemia (DENV-2/16681)?
**A.** comparable to the vehicle controls

**Q.** What about the “safety and tolerability in humans” value [2] of the same molecule?
**A.** safe and well tolerated

**Q.** What about the EC50 (DENV-1 G4 45AZ5; DENV-qPCR-VeroECACC-deltaCt-DENV-1/45AZ5_pre-seeding, single experiments (EXPERIMENT_ID), listed as 64281802-AAA, read-out: EC50 (µM) result_value, DENV-1/45AZ5) of the same molecule?
**A.** 0.0016 µM

**Q.** And the EC90 (DENV-1 G4 45AZ5; Dengue virus, DENV1)?
**A.** 0.00418 ± 0.00071 µM

**Q.** And the EC50 (DENV-1 G4 45AZ5; Dengue virus, DENV1, DENV-qPCR-VeroECACC-deltaCt-DENV-1/45AZ5_pre-seeding, mean of 6 results, read-out: EC50 (µM) Mean, DENV-1/45AZ5)?
**A.** 0.00152 µM

**Q.** What about the EC50 (DENV-1 G4 45AZ5; Dengue virus, DENV1, DENV-qPCR-VeroECACC-deltaCt-DENV-1/45AZ5_pre-seeding, single experiments (EXPERIMENT_ID), read-out: EC50 (µM) result_value, DENV-1/45AZ5) of the same molecule?
**A.** 0.0015 µM
